Cl.NCCCC[C@H](N)C(=O)O
Settings	solubility (mole fraction)
in DMSO, 282.8 K	0.0179
in DMSO, 288.2 K	0.0243
in DMSO, 293 K	0.0301
in DMSO, 298.1 K	0.0357
in DMSO, 303.3 K	0.0391
in DMSO, 308.4 K	0.0432
in DMSO, 312.8 K	0.0469
in DMSO, 318.1 K	0.0516
in DMSO, 323.2 K	0.0529
in DMSO, 328.3 K	0.0561
in ethanol, 288.1 K	6.71e-06
in ethanol, 292.8 K	8.31e-06
in ethanol, 298.1 K	9.91e-06
in ethanol, 303 K	1.09e-05
in ethanol, 308.1 K	1.22e-05
in ethanol, 312.7 K	1.41e-05
in ethanol, 318.2 K	1.63e-05
in ethanol, 322.9 K	1.76e-05
in ethanol, 328.3 K	1.92e-05
in ethylene glycol, 282.9 K	0.00769
in ethylene glycol, 288 K	0.0108
in ethylene glycol, 293.1 K	0.0146
in ethylene glycol, 298.2 K	0.0183
in ethylene glycol, 303.2 K	0.022
in ethylene glycol, 307.9 K	0.0259
in ethylene glycol, 312.9 K	0.0298
in ethylene glycol, 318 K	0.0326
in ethylene glycol, 322.7 K	0.0354
in ethylene glycol, 328.1 K	0.0377
in methanol, 297.9 K	0.000283
in methanol, 303 K	0.000368
in methanol, 308.1 K	0.000433
in methanol, 312.8 K	0.000501
in methanol, 318.1 K	0.00055
in methanol, 323 K	0.000592
in methanol, 327.8 K	0.000637
in water, 283 K	0.0497
in water, 288.1 K	0.0543
in water, 292.9 K	0.0587
in water, 298.1 K	0.0618
in water, 302.8 K	0.0627
in water, 308 K	0.0707
in water, 313.3 K	0.0833
in water, 317.9 K	0.0925
in water, 323 K	0.102
in water, 328.2 K	0.111

From BigSolDB 2.1
